# Reference: PMC9674830, “A glutamine-based single α-helix scaffold to target globular proteins” (Nature Communications, 2022)
# What was measured:
# [1] = CD spectroscopy (helicity); format: physicochemical; details: 30 μM peptide, ratio taken as sign of monomeric helix
# Protocol: Peptide samples for CD spectroscopy were diluted to a final concentration of 30 μM in a volume of 400 μL in either 20 mM phosphoric acid (pH 2.8) or sodium phosphate (pH 7.4) buffer. Spectra were obtained at 278 K (unless stated otherwise) in a Jasco 815 UV spectro-photopolarimeter with a 1 mm optical path cuvette using a data interval of 0.2 nm in the 190−260 nm range with a scanning speed of 50 nm min^−1 and 20 accumulations. A blank spectrum acquired on the pertaining buffer under the same experimental conditions was subtracted from the sample spectrum. Thermal denaturation experiments were performed by acquiring a single accumulation spectrum with the same parameters at 10 K intervals, with a temperature ramp speed of 10 K min^−1 and an equilibration time of 1 min.
# RAP74-CTD = target: T1, RAP74-CTD (Homo sapiens, UniProt P35269); assay: NMR chemical shift perturbation titration of peptides into 15N RAP74-CTD (KD); format: binding; details: 15 molar equivalents of peptide, NMR
# T1 construct: spanning residues 450-517; His6-MBP (with TEV site) (N, cleaved yes); made in house; host or cells: E. coli Rosetta (DE3)pLysS
# T1 sequence (P35269 450-517): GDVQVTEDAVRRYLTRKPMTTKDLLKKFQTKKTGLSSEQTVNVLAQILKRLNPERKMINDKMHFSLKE
# Protocol: Recombinant samples with ^15N isotope enrichment of the C-terminal domain of subunit 1 of the general transcription regulator TFIIF (RAP74-CTD), spanning residues 450-517, were obtained as described previously. A codon-optimized synthetic gene cloned in a pDONR221 vector was obtained from GeneArt (Thermo Fisher Scientific, Waltham, MA, USA) and subcloned into a pDEST-His6MBP vector obtained from Addgene. Rosetta (DE3)pLysS competent cells (Novagen, Merck KGaA, Darmstadt, Germany) were grown in MOPS medium with ^15NH4Cl as the only nitrogen source (310 K, induction at OD600 = 0.7, 1 mM IPTG, harvesting 3 h after induction). Soluble fractions of cell lysates from sonication in lysis buffer (50 mM Tris-HCl, 1 M NaCl, 10 mM imidazole, pH 8.0) were purified by IMAC, and fractions containing the His6MBP-TEV-RAP74-CTD fusion were dialyzed at 277 K overnight against cleavage buffer (50 mM Tris-HCl, 200 mM NaCl, 0.5 mM EDTA, pH 8.0) in the presence of TEV protease (50 μg/mL). A second IMAC step was performed and the flow-through containing the RAP-CTD was loaded onto a HiTrap SP HP cation exchange column followed by a size exclusion chromatography step on a Superdex 75 GL 10/300 column equilibrated with NMR buffer (20 mM sodium phosphate, 0.1% trifluoroacetic acid, pH 7.4), both mounted in an Äkta Purifier System (GE Healthcare, Chicago, IL, USA). The sample was concentrated to 100 μM using an Amicon Ultra 15 mL centrifugal filter (Merck KGaA, Darmstadt, Germany).
# Before the experiment, both the protein and the peptide were dialyzed (277 K, two dialysis steps) in the same preparation of NMR buffer (20 mM sodium phosphate, 0.1% trifluoroacetic acid, pH 7.4), using a Pur-A-Lyzer (Sigma-Aldrich, Burlington, MA, USA) and a Micro Float-A-Lyzer (Spectrum Laboratories, San Francisco, CA, USA) respectively. The chemical shift assignment of RAP74-CTD was reported previously (BMRB code 27288). Averaged ^1H and ^15N chemical shift perturbations (CSPs) were calculated as:2 ΔδAV=(Δδ1H)^2+1/5Δδ15N^2
# Dissociation constants, KD, and averaged CSP amplitude, Δδmax, for δ, δstpl, γ and γstpl peptide binding to RAP74-CTD were obtained by a global fitting (nonlinear regression) of the 10% peaks with the largest averaged CSPs to the following single-site binding model (1:1 stoichiometry):3 Δδ=Δδmax([Protein]+[Peptide]+KD)−([Protein]+[Peptide]+KD)^2−4[Protein][Peptide]/2[Protein]
sequence,measurement,setting,value
"KKPGASLAALQALQALQAAQAAKKY [(P3-7)2, Gln-based single α-helix scaffold peptide]",Θ222 nm/Θ208 nm,[1],< 1
same,"CSPs (ppm) induced by peptide on 15N RAP74-CTD, residue 452",RAP74-CTD; RAP74-CTD residue 452,0.00133 ppm
same,"CSPs (ppm) induced by peptide on 15N RAP74-CTD, residue 453",RAP74-CTD; RAP74-CTD residue 453,0.00174 ppm
same,"CSPs (ppm) induced by peptide on 15N RAP74-CTD, residue 454",RAP74-CTD; RAP74-CTD residue 454,0.00213 ppm
same,"CSPs (ppm) induced by peptide on 15N RAP74-CTD, residue 455",RAP74-CTD; RAP74-CTD residue 455,0.00368 ppm
same,"CSPs (ppm) induced by peptide on 15N RAP74-CTD, residue 457",RAP74-CTD; RAP74-CTD residue 457,0.000762 ppm
same,"CSPs (ppm) induced by peptide on 15N RAP74-CTD, residue 458",RAP74-CTD; RAP74-CTD residue 458,0.00141 ppm
same,"CSPs (ppm) induced by peptide on 15N RAP74-CTD, residue 459",RAP74-CTD; RAP74-CTD residue 459,0.00114 ppm
same,"CSPs (ppm) induced by peptide on 15N RAP74-CTD, residue 460",RAP74-CTD; RAP74-CTD residue 460,0.00136 ppm
same,"CSPs (ppm) induced by peptide on 15N RAP74-CTD, residue 461",RAP74-CTD; RAP74-CTD residue 461,0.00237 ppm
same,"CSPs (ppm) induced by peptide on 15N RAP74-CTD, residue 462",RAP74-CTD; RAP74-CTD residue 462,0.00141 ppm
same,"CSPs (ppm) induced by peptide on 15N RAP74-CTD, residue 463",RAP74-CTD; RAP74-CTD residue 463,0.00149 ppm
same,"CSPs (ppm) induced by peptide on 15N RAP74-CTD, residue 464",RAP74-CTD; RAP74-CTD residue 464,0.002 ppm
same,"CSPs (ppm) induced by peptide on 15N RAP74-CTD, residue 465",RAP74-CTD; RAP74-CTD residue 465,0.000665 ppm
same,"CSPs (ppm) induced by peptide on 15N RAP74-CTD, residue 466",RAP74-CTD; RAP74-CTD residue 466,0.00337 ppm
same,"CSPs (ppm) induced by peptide on 15N RAP74-CTD, residue 468",RAP74-CTD; RAP74-CTD residue 468,0.000677 ppm
same,"CSPs (ppm) induced by peptide on 15N RAP74-CTD, residue 469",RAP74-CTD; RAP74-CTD residue 469,0.00178 ppm
same,"CSPs (ppm) induced by peptide on 15N RAP74-CTD, residue 470",RAP74-CTD; RAP74-CTD residue 470,0.00475 ppm
same,"CSPs (ppm) induced by peptide on 15N RAP74-CTD, residue 471",RAP74-CTD; RAP74-CTD residue 471,0.006 ppm
same,"CSPs (ppm) induced by peptide on 15N RAP74-CTD, residue 472",RAP74-CTD; RAP74-CTD residue 472,0.003 ppm
same,"CSPs (ppm) induced by peptide on 15N RAP74-CTD, residue 473",RAP74-CTD; RAP74-CTD residue 473,0.00131 ppm
same,"CSPs (ppm) induced by peptide on 15N RAP74-CTD, residue 474",RAP74-CTD; RAP74-CTD residue 474,0.000952 ppm
same,"CSPs (ppm) induced by peptide on 15N RAP74-CTD, residue 475",RAP74-CTD; RAP74-CTD residue 475,0.0011 ppm
same,"CSPs (ppm) induced by peptide on 15N RAP74-CTD, residue 476",RAP74-CTD; RAP74-CTD residue 476,0.00225 ppm
same,"CSPs (ppm) induced by peptide on 15N RAP74-CTD, residue 477",RAP74-CTD; RAP74-CTD residue 477,0.0034 ppm
same,"CSPs (ppm) induced by peptide on 15N RAP74-CTD, residue 478",RAP74-CTD; RAP74-CTD residue 478,0.00316 ppm
same,"CSPs (ppm) induced by peptide on 15N RAP74-CTD, residue 484",RAP74-CTD; RAP74-CTD residue 484,0.00185 ppm
same,"CSPs (ppm) induced by peptide on 15N RAP74-CTD, residue 487",RAP74-CTD; RAP74-CTD residue 487,0.009 ppm
same,"CSPs (ppm) induced by peptide on 15N RAP74-CTD, residue 488",RAP74-CTD; RAP74-CTD residue 488,0.000614 ppm
same,"CSPs (ppm) induced by peptide on 15N RAP74-CTD, residue 489",RAP74-CTD; RAP74-CTD residue 489,0.00261 ppm
same,"CSPs (ppm) induced by peptide on 15N RAP74-CTD, residue 490",RAP74-CTD; RAP74-CTD residue 490,0.002 ppm
same,"CSPs (ppm) induced by peptide on 15N RAP74-CTD, residue 491",RAP74-CTD; RAP74-CTD residue 491,0.002 ppm
same,"CSPs (ppm) induced by peptide on 15N RAP74-CTD, residue 492",RAP74-CTD; RAP74-CTD residue 492,0.003 ppm
same,"CSPs (ppm) induced by peptide on 15N RAP74-CTD, residue 493",RAP74-CTD; RAP74-CTD residue 493,0.00151 ppm
same,"CSPs (ppm) induced by peptide on 15N RAP74-CTD, residue 494",RAP74-CTD; RAP74-CTD residue 494,0.00469 ppm
same,"CSPs (ppm) induced by peptide on 15N RAP74-CTD, residue 495",RAP74-CTD; RAP74-CTD residue 495,0.00146 ppm
same,"CSPs (ppm) induced by peptide on 15N RAP74-CTD, residue 496",RAP74-CTD; RAP74-CTD residue 496,0.00171 ppm
same,"CSPs (ppm) induced by peptide on 15N RAP74-CTD, residue 497",RAP74-CTD; RAP74-CTD residue 497,0.00134 ppm
same,"CSPs (ppm) induced by peptide on 15N RAP74-CTD, residue 498",RAP74-CTD; RAP74-CTD residue 498,0.00172 ppm
same,"CSPs (ppm) induced by peptide on 15N RAP74-CTD, residue 499",RAP74-CTD; RAP74-CTD residue 499,0.000579 ppm
same,"CSPs (ppm) induced by peptide on 15N RAP74-CTD, residue 500",RAP74-CTD; RAP74-CTD residue 500,0.00095 ppm
same,"CSPs (ppm) induced by peptide on 15N RAP74-CTD, residue 501",RAP74-CTD; RAP74-CTD residue 501,0.00151 ppm
same,"CSPs (ppm) induced by peptide on 15N RAP74-CTD, residue 503",RAP74-CTD; RAP74-CTD residue 503,0.000881 ppm
same,"CSPs (ppm) induced by peptide on 15N RAP74-CTD, residue 504",RAP74-CTD; RAP74-CTD residue 504,0.002 ppm
same,"CSPs (ppm) induced by peptide on 15N RAP74-CTD, residue 505",RAP74-CTD; RAP74-CTD residue 505,0.002 ppm
same,"CSPs (ppm) induced by peptide on 15N RAP74-CTD, residue 506",RAP74-CTD; RAP74-CTD residue 506,0.008 ppm
same,"CSPs (ppm) induced by peptide on 15N RAP74-CTD, residue 507",RAP74-CTD; RAP74-CTD residue 507,0.004 ppm
same,"CSPs (ppm) induced by peptide on 15N RAP74-CTD, residue 509",RAP74-CTD; RAP74-CTD residue 509,0.00319 ppm
same,"CSPs (ppm) induced by peptide on 15N RAP74-CTD, residue 510",RAP74-CTD; RAP74-CTD residue 510,0.000691 ppm
same,"CSPs (ppm) induced by peptide on 15N RAP74-CTD, residue 512",RAP74-CTD; RAP74-CTD residue 512,0.00469 ppm
same,"CSPs (ppm) induced by peptide on 15N RAP74-CTD, residue 513",RAP74-CTD; RAP74-CTD residue 513,0.00335 ppm
same,"CSPs (ppm) induced by peptide on 15N RAP74-CTD, residue 514",RAP74-CTD; RAP74-CTD residue 514,0.001 ppm
same,"CSPs (ppm) induced by peptide on 15N RAP74-CTD, residue 515",RAP74-CTD; RAP74-CTD residue 515,0.00145 ppm
same,"CSPs (ppm) induced by peptide on 15N RAP74-CTD, residue 516",RAP74-CTD; RAP74-CTD residue 516,0.00117 ppm
same,"CSPs (ppm) induced by peptide on 15N RAP74-CTD, residue 517",RAP74-CTD; RAP74-CTD residue 517,0.000251 ppm
